Measured values published in patent publication US10039753B2, “Imidazo[4,5-c]quinoline and imidazo[4,5-c][1,5]naphthyridine derivatives as LRRK2 inhibitors” (Pfizer Inc., priority 2015, dated 2018).
Structures can show the parent of a compound that is named as a salt.

How the values were obtained:
[1] = target: T1, GST-tagged truncated LRRK2 (Homo sapiens, UniProt Q5S007); test: LRRK2 Assay, Format 2 (Lantha Screen), WT; assay type: biochemical; details: geometric mean of 2-4 determinations unless otherwise indicated (a: >=5; b: single determination)
T1 construct: GST-tagged truncated LRRK2 from Invitrogen (Cat # PV4874); GST; purchased Invitrogen PV4874
T1 sequence (Q5S007 970-2527 limits assumed): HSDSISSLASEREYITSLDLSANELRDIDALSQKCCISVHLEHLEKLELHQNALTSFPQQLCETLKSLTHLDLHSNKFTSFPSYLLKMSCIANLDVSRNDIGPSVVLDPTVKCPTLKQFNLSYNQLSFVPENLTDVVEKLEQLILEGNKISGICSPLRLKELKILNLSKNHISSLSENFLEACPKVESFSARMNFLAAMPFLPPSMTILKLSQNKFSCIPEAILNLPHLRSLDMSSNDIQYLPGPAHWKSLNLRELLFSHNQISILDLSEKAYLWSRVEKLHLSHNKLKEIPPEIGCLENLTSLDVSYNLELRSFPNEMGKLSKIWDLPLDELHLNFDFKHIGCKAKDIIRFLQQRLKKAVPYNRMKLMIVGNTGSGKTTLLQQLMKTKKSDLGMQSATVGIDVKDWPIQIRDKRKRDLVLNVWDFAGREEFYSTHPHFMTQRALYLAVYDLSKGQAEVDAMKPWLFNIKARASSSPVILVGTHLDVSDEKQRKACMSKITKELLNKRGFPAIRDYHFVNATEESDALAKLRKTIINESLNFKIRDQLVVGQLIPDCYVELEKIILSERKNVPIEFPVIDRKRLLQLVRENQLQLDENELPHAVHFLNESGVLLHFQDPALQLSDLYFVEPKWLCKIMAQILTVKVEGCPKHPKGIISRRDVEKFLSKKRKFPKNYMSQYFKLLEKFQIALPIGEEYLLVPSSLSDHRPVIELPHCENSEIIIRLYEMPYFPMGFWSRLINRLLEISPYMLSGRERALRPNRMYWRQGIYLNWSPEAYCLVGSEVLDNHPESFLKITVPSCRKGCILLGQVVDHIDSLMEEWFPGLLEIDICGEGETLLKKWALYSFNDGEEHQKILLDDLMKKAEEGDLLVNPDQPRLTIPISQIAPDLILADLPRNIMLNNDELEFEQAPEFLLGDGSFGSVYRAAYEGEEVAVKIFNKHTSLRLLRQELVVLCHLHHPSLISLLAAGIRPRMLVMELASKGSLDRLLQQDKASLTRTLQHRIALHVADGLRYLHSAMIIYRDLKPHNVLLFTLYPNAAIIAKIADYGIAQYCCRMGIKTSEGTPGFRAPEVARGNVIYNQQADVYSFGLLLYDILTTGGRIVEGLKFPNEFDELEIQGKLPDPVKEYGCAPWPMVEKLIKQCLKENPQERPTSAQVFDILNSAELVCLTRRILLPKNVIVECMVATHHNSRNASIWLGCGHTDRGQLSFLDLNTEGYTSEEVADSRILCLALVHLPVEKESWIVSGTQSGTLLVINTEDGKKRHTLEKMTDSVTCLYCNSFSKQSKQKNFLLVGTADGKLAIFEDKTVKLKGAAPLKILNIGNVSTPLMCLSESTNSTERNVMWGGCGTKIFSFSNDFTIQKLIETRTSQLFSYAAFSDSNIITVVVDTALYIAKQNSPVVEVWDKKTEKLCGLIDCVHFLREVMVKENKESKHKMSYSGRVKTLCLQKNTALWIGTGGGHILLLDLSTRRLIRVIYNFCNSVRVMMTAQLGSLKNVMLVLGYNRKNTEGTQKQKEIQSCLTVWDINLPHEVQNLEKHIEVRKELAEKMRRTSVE
Procedure: (§1) LRRK2 kinase activity was measured using Lantha Screen technology from Invitrogen. GST-tagged truncated LRRK2 from Invitrogen (Cat # PV4874) was incubated with a fluorescein-labeled peptide substrate based upon ezrin/radixin/moesin (ERM), also known as LRRKtide (Invitrogen cat # PR8976A), in the presence of a dose response of compound. Upon completion, the assay was stopped and detected with a terbium labeled anti-phospho-ERM antibody (Invitrogen, cat # PR8975A). […] Using Echo acoustic dispensing, 60 nL of compound was transferred to a low volume Corning 384-well assay plate. 3 μL of a working solution of substrate (200 nM LRRKtide, […]) prepared in assay buffer (50 mM HEPES, pH 7.5, 3 mM MgCl2, with 2 mM DTT and 0.01% Brij35 added fresh) was added to the 60 nL compound assay plate. The kinase reaction was started with […] of a working solution of LRRK2 enzyme at a concentration of […]. The final reaction concentrations were 100 nM LRRKtide, […], […] LRRK2 enzyme and a compound dose response with a top dose of 3 mM. The reaction was allowed to progress at room temperature for 30 minutes and then stopped with the addition of […] of detection buffer (20 mM Tris pH 7.6, 0.01% NP-40, 6 mM EDTA with 2 nM terbium labeled anti-phospho-ERM). After an incubation of 1 hour at room temperature, the plate was read on an Envision with an excitation wavelength of 340 nm and a reading emission at both 520 nm and 495 nm. The ratio of the 520 nm and 495 nm emission was used to analyze the data. Inhibition of mutant G2019S LRRK2 (Invitrogen cat # PV4881) was measured in the exact same method. All final concentrations of substrate ATP and enzyme were the same.

mutant G2019S LRRK2 = mutant G2019S LRRK2 (Homo sapiens, UniProt Q5S007, G2019S); test: LRRK2 Assay, Format 2 (Lantha Screen), G2019S mutant; assay type: biochemical; set-up: purchased Invitrogen PV4881; details: geometric mean of 2-4 determinations unless otherwise indicated (a: >=5; b: single determination); read-out: LRRK2, Format 2 G2019S IC50
mutant G2019S LRRK2, sequence (Q5S007 970-2527 G2019S limits assumed): as the sequence (Q5S007 970-2527 limits assumed) above, with G1050S counted along it
Procedure: as §1

SMILES	IC50 [1]	IC50 (mutant G2019S LRRK2)
C[C@@H]1C[C@H](n2c(Cc3coc(C4CC4)n3)nc3cnc4ccc(C#N)cc4c32)CCO1 [Example 122, 2-[(2-cyclopropyl-1,3-oxazol-4-yl)methyl]-1-[(2R,4R)-2-methyltetrahydro-2H-pyran-4-yl]-1H-imidazo[4,5-c]quinoline-8-carbonitrile, formate salt]	0.0043 µM	0.0037 µM
Cc1cnn(Cc2nc3cnc4ccc(Cl)cc4c3n2[C@@H]2CCO[C@H](C)C2)n1 [Example 103, 8-Chloro-1-[(2R,4R)-2-methyltetrahydro-2H-pyran-4-yl]-2-[(4-methyl-2H-1,2,3-triazol-2-yl)methyl]-1H-imidazo[4,5-c]quinoline]	0.0112 µM	0.0106 µM
C[C@@H]1C[C@H](n2c(C(F)c3csnn3)nc3cnc4ccc(Cl)cc4c32)CCO1 (stereo partly drawn) [Example 220, 8-chloro-2-[fluoro(1,2,3-thiadiazol-4-yl)methyl]-1-[(2R,4R)-2-methyltetrahydro-2H-pyran-4-yl]-1H-imidazo[4,5-c]quinoline, formate salt]	0.00481 µM	0.00503 µM
C[C@@H]1C[C@H](n2c(Cn3cc(C(F)(F)F)nn3)nc3cnc4ccc(C#N)cc4c32)CCO1 [Example 175, 1-[(2R,4R)-2-methyltetrahydro-2H-pyran-4-yl]-2-{[4-(trifluoromethyl)-1H-1,2,3-triazol-1-yl]methyl}-1H-imidazo[4,5-c]quinoline-8-carbonitrile]	0.0134 µM	0.0122 µM
CCc1nn2cc(Cc3nc4cnc5ccc(C#N)cc5c4n3[C@@H]3CCO[C@H](C)C3)nc2s1 [Example 156, 2-[(2-ethylimidazo[2,1-b][1,3,4]thiadiazol-6-yl)methyl]-1-[(2R,4R)-2-methyltetrahydro-2H-pyran-4-yl]-1H-imidazo[4,5-c]quinoline-8-carbonitrile, formate salt]	0.00478 µM	0.00431 µM
CC(F)(F)Cn1c(Cn2ccc(C3CC3)n2)nc2cnc3ccc(C#N)cc3c21 [Example 225, 2-[(3-cyclopropyl-1H-pyrazol-1-yl)methyl]-1-(2,2-difluoropropyl)-1H-imidazo[4,5-c]quinoline-8-carbonitrile]	0.00723 µM	0.0087 µM
CO[C@H]1CC[C@H](n2c(Cc3cc(C)on3)nc3cnc4ccc(C#N)cc4c32)CC1 [Example 219, 1-(trans-4-methoxycyclohexyl)-2-[(5-methyl-1,2-oxazol-3-yl)methyl]-1H-imidazo[4,5-c]quinoline-8-carbonitrile, formate salt]	0.246 µM	0.126 µM
C[C@@H]1C[C@H](n2c(C(F)(F)c3ccccn3)nc3cnc4ccc(Cl)cc4c32)CCO1 [Example 214, 8-chloro-2-[difluoro(pyridin-2-yl)methyl]-1-[(2R,4R)-2-methyltetrahydro-2H-pyran-4-yl]-1H-imidazo[4,5-c]quinoline, formate salt]	0.00767 µM	0.00967 µM
Cc1cc(Cc2nc3cnc4ccc(C#N)cc4c3n2[C@H]2CCN(C)C2)no1 [Example 218, 2-[(5-methyl-1,2-oxazol-3-yl)methyl]-1-[(3S)-1-methylpyrrolidin-3-yl]-1H-imidazo[4,5-c]quinoline-8-carbonitrile, formate salt]	0.0214 µM	0.0322 µM
C[C@@H]1C[C@H](n2c(Cc3cc(C(F)(F)F)on3)nc3cnc4ccc(C#N)cc4c32)CCO1 [Example 119, 1-[(2R,4R)-2-methyltetrahydro-2H-pyran-4-yl]-2-{[5-(trifluoromethyl)-1,2-oxazol-3-yl]methyl}-1H-imidazo[4,5-c]quinoline-8-carbonitrile]	0.00753 µM	0.00821 µM
Cc1cc(Cc2nc3cnc4ccc(C#N)cc4c3n2[C@@H]2CCC[C@@H]2F)no1 (single isomer, unassigned; ent-1) [Example 146, 1-(cis-2-fluorocyclopentyl)-2-[(5-methyl-1,2-oxazol-3-yl)methyl]-1H-imidazo[4,5-c]quinoline-8-carbonitrile, ENT-1]	0.0178 µM	0.0299 µM
Cc1ccn(Cc2nc3cnc4ccc(C#N)cc4c3n2[C@@H]2CCO[C@H](C)C2)n1 [Example 233, 2-[(3-methyl-1H-pyrazol-1-yl)methyl]-1-[(2R,4R)-2-methyltetrahydro-2H-pyran-4-yl]-1H-imidazo[4,5-c]quinoline-8-carbonitrile, formate salt]	0.0143 µM	0.0119 µM
Cc1cc(Cc2nc3cnc4ccc(C#N)cc4c3n2[C@H]2CCCC[C@H]2O)no1 (racemic) [Example 242, 1-(cis-2-hydroxycyclohexyl)-2-[(5-methyl-1,2-oxazol-3-yl)methyl]-1H-imidazo[4,5-c]quinoline-8-carbonitrile, formate salt]	0.122 µM	0.119 µM
Cc1nc(Cc2nc3cnc4ccc(C#N)cc4c3n2[C@@H]2CCO[C@H](C)C2)c(C2CC2)o1 [Example 155, 2-[(5-cyclopropyl-2-methyl-1,3-oxazol-4-yl)methyl]-1-[(2R,4R)-2-methyltetrahydro-2H-pyran-4-yl]-1H-imidazo[4,5-c]quinoline-8-carbonitrile, formate salt]	0.0118 µM	0.00899 µM
C[C@@H]1C[C@H](n2c(Cc3noc4ccccc34)nc3cnc4ccc(C#N)cc4c32)CCO1 [Example 154, 2-(1,2-benzoxazol-3-ylmethyl)-1-[(2R,4R)-2-methyltetrahydro-2H-pyran-4-yl]-1H-imidazo[4,5-c]quinoline-8-carbonitrile, formate salt]	0.00401 µM	0.00371 µM
C[C@@H]1C[C@H](n2c(Cc3cc(CF)on3)nc3cnc4ccc(C#N)cc4c32)CCO1 [Example 189, 2-{[5-(fluoromethyl)-1,2-oxazol-3-yl]methyl}-1-[(2R,4R)-2-methyltetrahydro-2H-pyran-4-yl]-1H-imidazo[4,5-c]quinoline-8-carbonitrile, trifluoroacetate salt]	0.00504 µM	0.00354 µM
Cc1cn(Cc2nc3cnc4ccc(C#N)cc4c3n2C2CCCC2(F)F)nn1 (single isomer, unassigned; ent-2) [Example 197, 1-(2,2-difluorocyclopentyl)-2-[(4-methyl-1H-1,2,3-triazol-1-yl)methyl]-1H-imidazo[4,5-c]quinoline-8-carbonitrile, ENT-2]	0.0127 µM	0.0187 µM
Cc1cnn(Cc2nc3cnc4ccc(C#N)cc4c3n2[C@@H]2CCO[C@H](C)C2)c1 [Example 133, 2-[(4-methyl-1H-pyrazol-1-yl)methyl]-1-[(2R,4R)-2-methyltetrahydro-2H-pyran-4-yl]-1H-imidazo[4,5-c]quinoline-8-carbonitrile]	0.00768 µM	0.00716 µM
C[C@@H]1C[C@H](n2c(Cc3ccccn3)nc3cnc4ccc(Cl)cc4c32)CCO1 [Example 250, 8-chloro-1-[(2R,4R)-2-methyltetrahydro-2H-pyran-4-yl]-2-(pyridin-2-ylmethyl)-1H-imidazo[4,5-c]quinoline, formate salt]	0.0104 µM	0.011 µM
Cc1cc(Cc2nc3cnc4ccc(C#N)cc4c3n2C2CCCC2(F)F)no1 (single isomer, unassigned; ent-2) [Example 144, 1-(2,2-difluorocyclopentyl)-2-[(5-methyl-1,2-oxazol-3-yl)methyl]-1H-imidazo[4,5-c]quinoline-8-carbonitrile, ENT-2]	0.0193 µM	0.0293 µM
